Results: patent US12673945B2, “3-((8-((1H-pyrazol-4-yl)amino)imidazo[1,2-a]pyridin-3-yl)ethinyl)-n-phenylbenzamide derivative, method for preparing same, and pharmaceutical composition containing same as active ingredient for prevention or treatment of cancer” (DAEGU-GYEONGBUK MEDICAL INNOVATION FOUNDATION, priority 2020, dated 2026)
Values belong to the molecule of their own block, whether it stands above or below them.

How the values were obtained:
Format in all cases: cell-based
Parental (Ba/F3) = assay: Ba/F3 cell proliferation inhibition; conditions: BaF3; 72 hours, Cell Counting Kit-8
Summary of the method: (§1)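 GI50 derived from CCK-8 absorbance at 450 nm (2 h development), expressed relative to DMSO vehicle. Cells (parental or T315I-Bcr-Abl Ba/F3, 1×10^4/well) received nine threefold-diluted concentrations, final 0 to 10 μM, for 72 h at 37 °C.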

T315I-Bcr-Abl (Ba/F3) = assay: Ba/F3 cell proliferation inhibition; conditions: BaF3; 72 hours, Cell Counting Kit-8
Summary of the method: as §1

T315I-TCCS cells = assay: human CML cell proliferation inhibition; conditions: 72 hours, Cell Counting Kit-8
Summary of the method: (§2)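 Here GI50 reflects CCK-8 absorbance (450 nm) after a 72 h compound exposure, calculated relative to vehicle wells. Compound was tested up to a final 10 μM. The parental lines carry Bcr-Abl, the T315I lines carry the T315I gatekeeper mutant.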

KOPM28 cells = assay: human CML cell proliferation inhibition; conditions: 72 hours, Cell Counting Kit-8
Summary of the method: as §2

T315I-KOPM28 cells = assay: human CML cell proliferation inhibition; conditions: 72 hours, Cell Counting Kit-8
Summary of the method: as §2

TCCS cells = assay: human CML cell proliferation inhibition; conditions: 72 hours, Cell Counting Kit-8
Summary of the method: as §2

GI50 (T315I-Bcr-Abl (Ba/F3)): 50 to 500 nM
SMILES: Cc1cc(F)c(C(=O)Nc2cc(N(C)CCN(C)C)cc(C(C)(C)C#N)c2)cc1C#Cc1cnc2c(Nc3cn[nH]c3)cccn12 [Example 81, 5-((8-((1H-pyrazol-4-yl)amino)imidazo[1,2-a]pyridin-3-yl)ethynyl)-N-(3-(2-cyanopropan-2-yl)-5-((2-(dimethylamino)ethyl)(methyl)amino)phenyl)-2-fluoro-4-methylbenzamide]
GI50 (Parental (Ba/F3)): 500 to 5000 nM | GI50 (T315I-TCCS cells): 100 nM | GI50 (KOPM28 cells): < 10 nM | GI50 (T315I-KOPM28 cells): > 100 nM | GI50 (TCCS cells): < 10 nM

GI50 (T315I-Bcr-Abl (Ba/F3)): < 50 nM
SMILES: Cc1cc(F)c(C(=O)Nc2ccc(CN3CCN(CCO)CC3)c(C(F)(F)F)c2)cc1C#Cc1cnc2c(Nc3cnn(C)c3)cccn12 [Example 56, 2-fluoro-N-(4-((4-(2-hydroxyethyl)piperazin-1-yl)methyl)-3-(trifluoromethyl)phenyl)-4-methyl-5-((8-((1-methyl-1H-pyrazol-4-yl)amino)imidazo[1,2-a]pyridin-3-yl)ethynyl)benzamide]
GI50 (Parental (Ba/F3)): 500 to 5000 nM | GI50 (T315I-TCCS cells): < 10 nM | GI50 (KOPM28 cells): < 10 nM | GI50 (T315I-KOPM28 cells): < 10 nM | GI50 (TCCS cells): < 10 nM

GI50 (T315I-Bcr-Abl (Ba/F3)): < 50 nM
SMILES: Cc1cc(F)c(C(=O)Nc2ccc(CN3CCN(C)CC3)c(C(F)(F)F)c2)cc1C#Cc1cnc2c(Nc3cnn(C)c3)cccn12 [Example 55, 2-fluoro-4-methyl-5-((8-((1-methyl-1H-pyrazol-4-yl)amino)imidazo[1,2-a]pyridin-3-yl)ethynyl)-N-(4-((4-methylpiperazin-1-yl)methyl)-3-(trifluoromethyl)phenyl)benzamide]
GI50 (Parental (Ba/F3)): 500 to 5000 nM | GI50 (T315I-TCCS cells): < 10 nM | GI50 (KOPM28 cells): < 10 nM | GI50 (T315I-KOPM28 cells): < 10 nM | GI50 (TCCS cells): < 10 nM

GI50 (T315I-Bcr-Abl (Ba/F3)): < 50 nM
SMILES: Cc1cc(F)c(C(=O)Nc2cc(CN3CCN(C)CC3)cc(C(C)(C)C#N)c2)cc1C#Cc1cnc2c(Nc3cnn(C)c3)cccn12 [Example 27, N-(3-(2-cyanopropan-2-yl)-5-((4-methylpiperazin-1-yl)methyl)phenyl)-2-fluoro-4-methyl-5-((8-((1-methyl-1H-pyrazol-4-yl)amino)imidazo[1,2-a]pyridin-3-yl)ethynyl)benzamide]
GI50 (Parental (Ba/F3)): 500 to 5000 nM | GI50 (T315I-TCCS cells): 100 nM | GI50 (KOPM28 cells): < 10 nM | GI50 (T315I-KOPM28 cells): 100 nM | GI50 (TCCS cells): < 10 nM

GI50 (T315I-Bcr-Abl (Ba/F3)): 50 to 500 nM
SMILES: Cc1cc(F)c(C(=O)Nc2cc(-c3cccnc3)cc(C(F)(F)F)c2)cc1C#Cc1cnc2c(Nc3cnn(C)c3)cccn12 [Example 53, 2-fluoro-4-methyl-5-((8-((1-methyl-1H-pyrazol-4-yl)amino)imidazo[1,2-a]pyridin-3-yl)ethynyl)-N-(3-(pyridin-3-yl)-5-(trifluoromethyl)phenyl)benzamide]
GI50 (Parental (Ba/F3)): > 5000 nM | GI50 (T315I-TCCS cells): 100 nM | GI50 (KOPM28 cells): < 10 nM | GI50 (T315I-KOPM28 cells): > 100 nM | GI50 (TCCS cells): < 10 nM

GI50 (T315I-Bcr-Abl (Ba/F3)): < 50 nM
SMILES: Cc1cc(F)c(C(=O)Nc2cc(CN3CCC(N(C)C)C3)cc(C(F)(F)F)c2)cc1C#Cc1cnc2c(Nc3cn[nH]c3)cccn12 (stereo not drawn) [Example 105, 5-((8-((1H-pyrazol-4-yl)amino)imidazo[1,2-a]pyridin-3-yl)ethynyl)-N-(3-((3-(dimethylamino)pyrrolidin-1-yl)methyl)-5-(trifluoromethyl)phenyl)-2-fluoro-4-methylbenzamide]
GI50 (Parental (Ba/F3)): 500 to 5000 nM | GI50 (T315I-TCCS cells): < 10 nM | GI50 (KOPM28 cells): < 10 nM | GI50 (T315I-KOPM28 cells): 100 nM | GI50 (TCCS cells): < 10 nM

GI50 (T315I-Bcr-Abl (Ba/F3)): 50 to 500 nM
SMILES: Cc1cc(F)c(C(=O)Nc2cc(N3CCN(C)C(=O)C3)cc(C(C)(C)C#N)c2)cc1C#Cc1cnc2c(Nc3cnn(C)c3)cccn12 [Example 24, N-(3-(2-cyanopropan-2-yl)-5-(4-methyl-3-oxopiperazin-1-yl)phenyl)-2-fluoro-4-methyl-5-((8-((1-methyl-1H-pyrazol-4-yl)amino)imidazo[1,2-a]pyridin-3-yl)ethynyl)benzamide]
GI50 (Parental (Ba/F3)): 500 to 5000 nM | GI50 (T315I-TCCS cells): 100 nM | GI50 (KOPM28 cells): < 10 nM | GI50 (T315I-KOPM28 cells): 100 nM | GI50 (TCCS cells): < 10 nM

GI50 (T315I-Bcr-Abl (Ba/F3)): < 50 nM
SMILES: Cc1cn(-c2cc(NC(=O)c3cc(C#Cc4cnc5c(Nc6cn[nH]c6)cccn45)c(C)cc3Cl)cc(C(C)(C)C#N)c2)cn1 [Example 76, 5-((8-((1H-pyrazol-4-yl)amino)imidazo[1,2-a]pyridin-3-yl)ethynyl)-2-chloro-N-(3-(2-cyanopropan-2-yl)-5-(4-methyl-1H-imidazol-1-yl)phenyl)-4-methylbenzamide]
GI50 (Parental (Ba/F3)): > 5000 nM | GI50 (T315I-TCCS cells): 100 nM | GI50 (KOPM28 cells): < 10 nM | GI50 (T315I-KOPM28 cells): 100 nM | GI50 (TCCS cells): < 10 nM

GI50 (T315I-Bcr-Abl (Ba/F3)): 50 to 500 nM
SMILES: Cc1cc(Cl)c(C(=O)Nc2cc(CN3CCN(CCO)CC3)cc(C(C)(C)C#N)c2)cc1C#Cc1cnc2c(Nc3cnn(C)c3)cccn12 [Example 16, 2-chloro-N-(3-(2-cyanopropan-2-yl)-5-((4-(2-hydroxyethyl)piperazin-1-yl)methyl)phenyl)-4-methyl-5-((8-((1-methyl-1H-pyrazol-4-yl)amino)imidazo[1,2-a]pyridin-3-yl)ethynyl)benzamide]
GI50 (Parental (Ba/F3)): > 5000 nM | GI50 (T315I-TCCS cells): 100 nM | GI50 (KOPM28 cells): < 10 nM | GI50 (T315I-KOPM28 cells): 100 nM | GI50 (TCCS cells): < 10 nM

GI50 (T315I-Bcr-Abl (Ba/F3)): 50 to 500 nM
SMILES: Cc1cc(F)c(C(=O)Nc2cc(N3CCCN(C)CC3)cc(C(C)(C)C#N)c2)cc1C#Cc1cnc2c(Nc3cnn(C)c3)cccn12 [Example 21, N-(3-(2-cyanopropan-2-yl)-5-(4-methyl-1,4-diazepan-1-yl)phenyl)-2-fluoro-4-methyl-5-((8-((1-methyl-1H-pyrazol-4-yl)amino)imidazo[1,2-a]pyridin-3-yl)ethynyl)benzamide]
GI50 (Parental (Ba/F3)): 500 to 5000 nM | GI50 (T315I-TCCS cells): 100 nM | GI50 (KOPM28 cells): < 10 nM | GI50 (T315I-KOPM28 cells): > 100 nM | GI50 (TCCS cells): < 10 nM

GI50 (T315I-Bcr-Abl (Ba/F3)): 50 to 500 nM
SMILES: Cc1cc(F)c(C(=O)Nc2cc(Cn3ccnc3)cc(C(F)(F)F)c2)cc1C#Cc1cnc2c(Nc3cnn(C)c3)cccn12 [Example 73, N-(3-((1H-imidazol-1-yl)methyl)-5-(trifluoromethyl)phenyl)-2-fluoro-4-methyl-5-((8-((1-methyl-1H-pyrazol-4-yl)amino)imidazo[1,2-a]pyridin-3-yl)ethynyl)benzamide]
GI50 (Parental (Ba/F3)): > 5000 nM | GI50 (T315I-TCCS cells): 100 nM | GI50 (KOPM28 cells): < 10 nM | GI50 (T315I-KOPM28 cells): 100 nM | GI50 (TCCS cells): < 10 nM

GI50 (T315I-Bcr-Abl (Ba/F3)): < 50 nM
SMILES: Cc1cc(F)c(C(=O)Nc2cc(Oc3ccncc3)cc(C(F)(F)F)c2)cc1C#Cc1cnc2c(Nc3cnn(C)c3)cccn12 [Example 7, 2-fluoro-4-methyl-5-((8-((1-methyl-1H-pyrazol-4-yl)amino)imidazo[1,2-a]pyridin-3-yl)ethynyl)-N-(3-(pyridin-4-yloxy)-5-(trifluoromethyl)phenyl)benzamide]
GI50 (Parental (Ba/F3)): > 5000 nM | GI50 (T315I-TCCS cells): < 10 nM | GI50 (KOPM28 cells): < 10 nM | GI50 (T315I-KOPM28 cells): < 10 nM | GI50 (TCCS cells): < 10 nM

GI50 (T315I-Bcr-Abl (Ba/F3)): < 50 nM
SMILES: Cc1cc(F)c(C(=O)Nc2ccc(CN3CCN(C)C(=O)C3)c(C(F)(F)F)c2)cc1C#Cc1cnc2c(Nc3cnn(C)c3)cccn12 [Example 58, 2-fluoro-4-methyl-5-((8-((1-methyl-1H-pyrazol-4-yl)amino)imidazo[1,2-a]pyridin-3-yl)ethynyl)-N-(4-((4-methyl-3-oxopiperazin-1-yl)methyl)-3-(trifluoromethyl)phenyl)benzamide]
GI50 (Parental (Ba/F3)): > 5000 nM | GI50 (T315I-TCCS cells): 100 nM | GI50 (KOPM28 cells): < 10 nM | GI50 (T315I-KOPM28 cells): 100 nM | GI50 (TCCS cells): < 10 nM
